The target in test [1] is T1, COX-1 (Homo sapiens, UniProt P23219). Briefly: microsomal enzyme assay, percent inhibition at […] (marginal, […], at […]). The format is biochemical. Also noted: gene PTGS1; recombinant human COX-1, microsomes from transfected Sf9 cells.
The target in test [2] is T1, COX-1. Also noted: gene PTGS1.
In test [3] the target is T1, COX-1. Put plainly: microsomal enzyme assay, percent inhibition at […] (only […] at […]). It counts as cell-free. Also noted: gene PTGS1; recombinant human COX-1, microsomes from transfected Sf9 cells.

T1 sequence (P23219 24-599): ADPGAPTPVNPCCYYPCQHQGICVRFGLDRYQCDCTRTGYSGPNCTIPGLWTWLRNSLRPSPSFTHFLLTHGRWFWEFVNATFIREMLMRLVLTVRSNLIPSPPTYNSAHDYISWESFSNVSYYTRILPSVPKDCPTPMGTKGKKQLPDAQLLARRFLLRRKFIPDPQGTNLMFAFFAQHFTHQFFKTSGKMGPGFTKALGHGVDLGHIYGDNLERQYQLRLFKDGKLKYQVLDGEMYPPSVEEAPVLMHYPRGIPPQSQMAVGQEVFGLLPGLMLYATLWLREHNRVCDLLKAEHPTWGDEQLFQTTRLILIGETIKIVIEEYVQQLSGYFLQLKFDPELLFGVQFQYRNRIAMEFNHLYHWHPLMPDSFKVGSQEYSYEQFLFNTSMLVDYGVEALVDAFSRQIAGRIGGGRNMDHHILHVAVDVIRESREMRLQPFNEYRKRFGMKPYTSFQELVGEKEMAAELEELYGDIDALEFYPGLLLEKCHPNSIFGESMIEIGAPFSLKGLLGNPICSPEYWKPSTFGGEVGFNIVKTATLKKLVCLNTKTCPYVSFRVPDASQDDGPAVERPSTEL

As usually defined, the inhibition is how much of the control response was suppressed. Take `CC(C)(Oc1ccc(Cl)cc1)C(=O)O` [clofibric acid]: the inhibition at 250 µM at COX-1 [1] is 14%. A word on the IC50: it is the concentration needed to halve the response being measured. Read a high IC50 as weaker potency. Consider `CC(C)(Oc1ccc(C(=O)c2ccc(Cl)cc2)cc1)C(=O)O` [fenofibric acid], for which half-maximal inhibition at COX-1 [2] (IC50) was put at 950 µM. With `Cc1ccc(C)c(OCCCC(C)(C)C(=O)O)c1` [gemfibrozil], on COX-1 [3], the inhibition at 250 µM was found to be 18%.

These data come from article PMC4298667, “Chemical and protein structural basis for biological crosstalk between PPARα and COX enzymes” (Journal of Computer-Aided Molecular Design, 2014).
